From patent US20100196355A1, “Immunophilin Ligands and Methods for Modulating Immunophilin and Calcium Channel Activity” (Wyeth, priority 2007, published 2010)

Assays:
FKBPs = test: Size exclusion binding of [14C]-1 to purified recombinant protein; set-up: species or system human; details: 10 μM
Excerpt: (§1) Using Gateway cloning methods developed by Invitrogen (Carlsbad, Calif.), cacnb1/CACNB 1, cacnb4/CACNB4fkbp3/FKBP25, fkbp4/FKBP52, ppid, ppif and fkbp8/FKBP38 genes were cloned into the pDEST17 (N-His6 tag) vector. The His6-CACNB1: TGG548TAA were generated from pDEST17-CACNB1 using QuikChange site-directed mutagenesis kit (Stratagene, LaJolla, Calif.). The His6 tagged protein was purified on a Ni-NTA column (Qiagen, Valencia, Calif.).

PPIF = molecular target: T1, PPIF (Homo sapiens, UniProt P30405); test: as above; details: 10 μM
T1 construct: His6 (N); made in house
T1 sequence (P30405 30-207): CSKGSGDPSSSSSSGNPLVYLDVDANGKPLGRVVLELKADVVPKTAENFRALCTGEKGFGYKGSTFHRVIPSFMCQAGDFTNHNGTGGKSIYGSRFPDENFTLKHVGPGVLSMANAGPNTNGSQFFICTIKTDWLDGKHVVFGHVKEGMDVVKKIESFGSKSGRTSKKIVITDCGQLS
Excerpt: as §1

His6-CACNB1:TGG548TAA = molecular target: T2, His6-CACNB1:TGG548TAA (Homo sapiens, UniProt Q02641); test: as above; details: 10 μM
T2 construct: His6 (N); made in house
T2 sequence (Q02641 1-547 limits assumed): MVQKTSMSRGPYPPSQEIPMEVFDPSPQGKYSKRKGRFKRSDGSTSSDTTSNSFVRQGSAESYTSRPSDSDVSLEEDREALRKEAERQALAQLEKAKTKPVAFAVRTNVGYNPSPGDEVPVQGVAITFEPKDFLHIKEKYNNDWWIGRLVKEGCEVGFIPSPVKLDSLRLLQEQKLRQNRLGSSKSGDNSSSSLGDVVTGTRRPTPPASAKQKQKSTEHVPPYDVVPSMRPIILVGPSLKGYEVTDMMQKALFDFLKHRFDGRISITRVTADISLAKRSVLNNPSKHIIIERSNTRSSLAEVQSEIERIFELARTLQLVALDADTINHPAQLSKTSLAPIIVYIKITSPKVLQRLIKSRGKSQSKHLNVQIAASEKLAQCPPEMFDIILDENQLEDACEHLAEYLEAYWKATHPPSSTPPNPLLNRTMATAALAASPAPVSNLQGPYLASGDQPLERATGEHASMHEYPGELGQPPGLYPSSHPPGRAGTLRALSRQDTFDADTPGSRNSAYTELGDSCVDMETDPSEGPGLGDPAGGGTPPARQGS
Excerpt: as §1

CACNB4 = molecular target: T3, CACNB4 (Homo sapiens, UniProt O00305); test: as above; details: 10 μM
T3 construct: His6 (N); made in house
Excerpt: as §1

PPID = molecular target: T4, PPID (Homo sapiens, UniProt Q08752); test: as above; details: 10 μM
T4 construct: His6 (N); made in house
T4 sequence (Q08752 whole entry): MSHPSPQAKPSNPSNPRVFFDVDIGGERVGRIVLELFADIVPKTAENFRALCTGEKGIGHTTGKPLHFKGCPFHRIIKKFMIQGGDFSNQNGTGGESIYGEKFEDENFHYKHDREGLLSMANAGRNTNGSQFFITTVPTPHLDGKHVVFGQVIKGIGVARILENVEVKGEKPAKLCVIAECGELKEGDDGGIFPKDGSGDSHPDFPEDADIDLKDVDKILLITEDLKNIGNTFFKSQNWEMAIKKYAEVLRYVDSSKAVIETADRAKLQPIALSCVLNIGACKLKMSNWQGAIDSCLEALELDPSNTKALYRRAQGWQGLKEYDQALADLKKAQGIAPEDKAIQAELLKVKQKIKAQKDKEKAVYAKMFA
Excerpt: as §1

FKBP38/Ca2+/CaM = molecular target: T5, FKBP38/Ca2+/CaM (Homo sapiens, UniProt Q14318); test: as above; details: 10 μM; 2 mM Ca2+ and 5 μM CaM
T5 construct: His6 (N); made in house
T5 sequence (Q14318 whole entry): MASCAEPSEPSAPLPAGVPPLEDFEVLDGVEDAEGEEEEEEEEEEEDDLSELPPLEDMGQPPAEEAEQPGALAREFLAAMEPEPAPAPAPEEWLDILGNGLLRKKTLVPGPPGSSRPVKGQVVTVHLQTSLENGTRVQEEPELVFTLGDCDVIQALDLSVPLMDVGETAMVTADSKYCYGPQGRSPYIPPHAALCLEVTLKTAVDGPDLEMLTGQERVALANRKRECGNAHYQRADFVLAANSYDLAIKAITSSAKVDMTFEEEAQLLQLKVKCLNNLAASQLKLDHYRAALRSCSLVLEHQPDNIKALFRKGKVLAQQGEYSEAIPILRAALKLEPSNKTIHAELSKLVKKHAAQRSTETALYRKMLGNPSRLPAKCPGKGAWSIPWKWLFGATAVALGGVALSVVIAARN
Excerpt: as §1

[1] = system: Ca2+ channel in F-11 cells; test: Whole-cell patch clamp recording of Ca2+ currents in F-11 cells; assay type: cell-based, rat and mouse hybrid; details: 5 μM in the bath for 2 hrs
Method: The whole-cell configuration of the patch-clamp technique was used to record calcium currents from the cells at room temperature using an EPC-9 amplifier (HEKA, Instrutech Corp.) with the acquisition and analysis program Pulse-PulseFit from HEKA (Lambrecht, Germany). Electrodes were fabricated using a P-87 puller (Sutter Instrument). […] The standard bath recording solution is Ca^2+ and Mg^2+ free HBSS (pH 7.4) containing 10 mM HEPES, 10 mM dextrose, and 4 mM BaCl2. Currents were filtered at 3 kHz, and the inward Ca^2+ currents were recorded from cells held at −90 mV with 10 mV depolarizing steps from −80 mV to 60 mV for 50 ms.

His6-tagged FKBP12 = His6-tagged FKBP12 (Homo sapiens, UniProt P62942); test: [3H]-FK506 binding on Ni-chelated FLASH plate; details: read-out: FKBP 12 (Kd)
Chain of His6-tagged FKBP12 (P62942 whole entry): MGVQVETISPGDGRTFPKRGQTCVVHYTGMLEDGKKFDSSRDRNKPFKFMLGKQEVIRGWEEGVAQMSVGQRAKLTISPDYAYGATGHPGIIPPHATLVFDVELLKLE
Method: (§2) Reactions were carried out in triplicate at 25° C. for 30 min. Kd were calculated using methods described by Carreras (Anal. Biochem. 298, 57-61 (2001)).

His6-tagged FKBP52 = molecular target: T6, His6-tagged FKBP52 (Homo sapiens, UniProt Q02790); test: [3H]-FK506 binding on Ni-chelated FLASH plate; details: read-out: FKBP 52 (Kd)
T6 construct: made in house
T6 sequence (Q02790 1-459): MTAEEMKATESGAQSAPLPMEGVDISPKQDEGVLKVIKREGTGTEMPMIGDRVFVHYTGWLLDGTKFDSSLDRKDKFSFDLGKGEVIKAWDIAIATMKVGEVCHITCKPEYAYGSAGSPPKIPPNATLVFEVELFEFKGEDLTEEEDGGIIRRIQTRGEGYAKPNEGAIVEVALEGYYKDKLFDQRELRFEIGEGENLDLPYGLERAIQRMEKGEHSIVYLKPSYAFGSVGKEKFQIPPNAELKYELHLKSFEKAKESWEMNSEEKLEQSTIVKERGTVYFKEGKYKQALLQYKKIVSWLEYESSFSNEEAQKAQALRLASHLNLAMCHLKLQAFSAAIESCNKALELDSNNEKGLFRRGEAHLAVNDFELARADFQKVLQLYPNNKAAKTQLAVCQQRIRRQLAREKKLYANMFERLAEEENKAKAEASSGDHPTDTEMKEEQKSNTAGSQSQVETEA
Method: as §2

Human CD4+ T cells = test: Immunosuppression assay: IL-2 stimulated CD4+ T-cell proliferation; assay type: cell-based; details: Homo sapiens, CD4+ T cell
Method: Human CD4^+ T cells were purified by negative selection from peripheral blood lymphocytes using RosetteSep as per manufacture's instructions (StemCell Technologies, Inc. Vancouver, British Columbia). Tosyl-activated magnetic microspheres (Dynal, Great Neck, N.Y.) were coated with anti-CD3 Ab (1 μg/10^7 microspheres), and anti-CD28Ab ([…]) as described in Blair et al. J. Immunol., 160:12, 1998. […] Protein-coated microspheres were added to purified CD4+T cells (2×10^6cells/mL, ratio 1 bead: 1 cell) and activated for 72 hours in RPMI, 10% fetal calf serum, 2 mM glutamine media. Cells were harvested, washed, and cultured overnight in fresh media and re-stimulated with IL-2 as described in Bennett et al., J. Immunol. 170:711, 2003. […] Seventy-two hours after culture re-stimulation, plates were pulsed with 1 μCi/well tritiated thymidine and incubated for a 6-16 hour period.

cortical neurons = test: Neurite outgrowth in cortical neurons; assay type: cell-based, rat; details: siRNA-transfected rat cortical neurons, 24 h; control lamin A/C siRNA
Method: Cortical neurons were fixed using 2% paraformaldehyde for 5 min followed by 4% paraformaldehyde for 5 min. Cells were incubated in blocking solution (0.2% Triton-X+1.5% normal goat serum in PBS) followed by primary (anti-neuronal class III β-tubulin (TUJ1) (Covance Innovative Antibodies, Berkeley, Calif.) and secondary antibody (Alexa Fluor 488 goat anti-mouse) (Molecular Probes, Carlsbad, Calif.). Each step was performed at room temperature for 1 hr. Total neurite outgrowth for each condition was analyzed using the Neuronal Profiling Bioapplication on an ArrayScan HCS Reader (Cellomics, Pittsburgh, Pa.).
(§3) Briefly, cortical neuron cultures were prepared from embryonic day 15 (E15) rat embryos (Sprague-Dawley, Charles River Laboratories, Wilmington, Mass.). The embryos were collected, their brains were removed, and the cortices were dissected out in ice-cold phosphate-buffered saline (PBS) without Ca^2+ and Mg^2+. Dissected pieces of cortical tissue were pooled together and transferred to an enzymatic dissociation media containing 20 IU/ml papain in Earle's balanced salt solution (Worthington Biochemical, Freehold, N.J.) and incubated for 30 min at 37° C. After enzymatic dissociation, the papain solution was aspirated and the tissue mechanically triturated with a fire-polished Pasteur pipette in complete media [Neurobasal Medium with B-27 supplement (Gibco, Grand Island, N.Y.), 100 IU/ml penicillin, 100 μg/ml streptomycin, 3.3 μg/ml aphidicolin, 0.5 mM glutamate] containing 2,000 IU/ml DNase and 10-mg/ml ovomucoid protease inhibitor.

[2] = system: cultured rat cortical neurons; test: Neuronal survival assay (neurofilament ELISA); assay type: cell-based; details: siRNA-transfected rat cortical neurons; neurofilament ELISA
Method: Cultures were fixed for 30 min with 4% paraformaldehyde at 37° C. Nonspecific binding was blocked by incubating with PBS containing 0.3% Triton X-100 and 5% fetal bovine serum (FBS) for 45 min. Cultures were then incubated overnight at 4° C. with an anti-neurofilament (200 kD) monoclonal antibody (1:1000, clone RT-97, Chemicon, Temecula, Calif.). After washing, a peroxidase-conjugated secondary antibody (1:1000, Vector Labs, Burlingame, Calif.) was applied for 2 h. After three washes, the peroxidase substrate K-BlueMax (Neogen, Lexington, Ky.; Young et al., 1999) was added to the cultures and incubated for 10 min on an orbital shaker. The peroxidase substrate is highly soluble in the K-BlueMax solution. Optical density is then readily measured using a Molecular Devices Spectramax Plus colorimetric plate reader at 650
as §3

Q: With “9,27-dihydroxy-3-{2-[4-hydroxy-3-methoxycyclohexyl ]-1-methylethyl}-10,21-dimethoxy-6,8,12,14,20,26-hexamethyl-37-phenyl-4,9,10,12,13,14,15,18,21,22,23,24,25,26,27,32,33,34,34a-nonadecahydro-3H-23,27-epoxy-18,15-(epoxyimino)pyrido[2,1-c][1,4]oxazacyclohentriacontine-1,5,11,28,29(6H, 31H)-pentone [Rapamycin analogue I]” as the compound, how does the “binding of [14C]-1 to FKBPs” value (FKBPs) read?
A: Its value is “well”.

Q: And the “binding of [14C]-1 to PPIF” value (PPIF)?
A: The value was “negligibly”.

Q: What about the “binding of [14C]-Compound 1 to mutant His6-CACNB1:TGG548TAA” value (His6-CACNB1:TGG548TAA) of the same compound?
A: Its value is “weakly”.

Q: And the “binding of [14C]-Compound 1 to CACNB4” value (CACNB4)?
A: The value was “negligibly”.

Q: What about the “binding of [14C]-1 to PPID” value (PPID) of the same compound?
A: Its value is “weakly”.

Q: And the “binding of [14C]-1 to FKBP38/Ca2+/CaM” value (FKBP38/Ca2+/CaM)?
A: The value was “negligibly”.

Q: With `C=CC[C@@H]1/C=C(\C)C[C@H](C)C[C@H](OC)[C@H]2O[C@@](O)(C(=O)C(=O)N3CCCC[C@H]3C(=O)O[C@H](/C(C)=C/[C@@H]3CC[C@@H](O)[C@H](OC)C3)[C@H](C)[C@@H](O)CC1=O)[C@H](C)C[C@@H]2OC` [FK506, reference compound] as the compound, how does the “Ca2+ current density” value [1] read?
A: The value was 2.9+/−0.1 pA/pF.

Q: And the “decrease of Ca2+ current density vs vehicle” value [1]?
A: The value was 55%.

Q: Which Kd (His6-tagged FKBP12) does the source give for `CCC(C)(C)C(=O)C(=O)N1CCC[C@H]1C(=O)OCCCc1cccnc1` [GPI-1046, reference compound] here?
A: Its Kd is over 110 nM.

Q: What about the Kd (His6-tagged FKBP52) of the same compound?
A: The Kd was over 12 nM.

Q: What does the source list for `CO[C@H]1C[C@@H]2CC[C@@H](C)[C@@](O)(O2)C(=O)C(=O)N2CCCC[C@H]2C(=O)O[C@H]([C@H](C)C[C@@H]2CC[C@@H](O)[C@H](OC)C2)CC(=O)[C@H](C)/C=C(\C)[C@@H](O)[C@@H](OC)C(=O)[C@H](C)C[C@H](C)/C=C/C=C/C=C/1C` [Rapamycin, reference compound]?
A: IC50 (Human CD4+ T cells): 5 nM; Kd (His6-tagged FKBP52): 1.4 ± 0.1 nM

Q: For “CACNB1 siRNA: siRNA, sense GGAGAAGUACAAUAAUGACTT (SEQ ID NO:15), antisense GUCAUUAUUGUACUUCUCCTT (SEQ ID NO:16) (chemistry not given here)”, which “total neurite outgrowth compared to control” value (cortical neurons) is on record?
A: Its value is “essentially unchanged”.

Q: And the “percent neuronal survival compared to control” value [2]?
A: Its value is 80±3 % of control.

Q: How did the “total neurite outgrowth compared to control” value (cortical neurons) turn out when “FKBP52 siRNA: siRNA, sense CCUAGCUAUGCUUUUGGCATT (SEQ ID NO:17), antisense UGCCAAAGCAUAGCUAGGTT (SEQ ID NO:18) (chemistry not given here)” was run?
A: The value was 125±12 % of control.

Q: What about the “percent neuronal survival compared to control” value [2] of the same compound?
A: Its value is 112±2 % of control.
